From patent publication US8519110B2, “mRNA cap analogs” (Board of Supervisors of Louisiana State University And …, priority 2008, dated 2013)

Experiments:
[1] = system: rabbit reticulocyte lysate system; test: In vitro translation efficiency of capped luciferase mRNA with 31-base poly(A) tail, method II transcripts; assay type: biochemical; conditions: for Translation efficiency in comparison to m^7GpppG-LUC-(A)31 mRNA, Experiment No. 4: experiment 4; for Translation efficiency in comparison to m^7GpppG-LUC-(A)31 mRNA, Experiment No. 5: experiment 5; for Translation efficiency in comparison to m^7GpppG-LUC-(A)31 mRNA, Mean: mean of experiments
Procedure: Capped, polyadenylated luciferase mRNAs were synthesized in vitro by PCR from a dsDNA template that contained the SP6 promoter, the 5′-UTR sequence of rabbit β-globin mRNA, the entire firefly luciferase coding region, and 31 adenosine residues. A typical transcription reaction mixture (40 μl) contained SP6 transcription buffer (Fermentas), 0.7 ug of DNA template, 1 U/μl RiboLock Ribonuclease Inhibitor (Fermentas), 0.5 mM each of ATP, CTP, and UTP, 0.1 mM GTP, and 0.5 mM dinucleotide cap analog. The reaction mixture was incubated at 37° C. for 5 min before addition of SP6 RNA polymerase (Fermentas) to a final concentration of 1 U/μl, and incubation then continued for 45 min at 37° C. The reaction mixture was treated with DNase as in Method I. RNA transcripts were purified with NucAway Spin Columns (Ambion). The integrity of transcripts and quantitation was performed as in Method I.
(§1) A micrococcal nuclease-treated rabbit reticulocyte lysate system (Flexi Rabbit Reticulocyte Lysate System, Promega) was used for in vitro translation. Translation reactions were performed in 10 μl for 60 min at 30° C. A typical reaction mixture contained 40% reticulocyte lysate, the 20 “standard” amino acids (0.01 mM each), MgCl2 (1.2 mM), potassium acetate (170 mM), and mRNA (five different concentrations of each transcript, ranging from 0.25 to 4 μg/ml). Luciferase activity was measured in a luminometer (Glomax, Promega). Linear regression was used to fit the data points (luciferase activity versus concentration of mRNA transcript), and translational efficiency was defined as the slope of this line. The relative translational efficiencies of the test mRNAs were compared to that of m^7GpppG-capped luciferase mRNA, the latter being defined as 1.0.

[2] = target: eIF4E (Mus musculus, UniProt P63073); test: Binding affinity of cap analogs to eIF4E by fluorescence titration; conditions: equilibrium association constant; for Cap analog/eIF4E affinity (KAS): 20 °C, pH 7.2, ionic strength 150 mM
Procedure: Fluorescence titration measurements were carried out on an LS-50B or LS-55 spectrofluorometer (Perkin Elmer Co.) at 20.0±0.2° C. in 50 mM HEPES/KOH (pH 7.2), 0.5 mM EDTA, and 1 mM DTT, with ionic strength adjusted to 150 mM by addition of KCl. Various cap analogue solutions, of increasing concentration, were added in 1 μl aliquots to 1.4 ml of 0.1 or 0.2 μM protein solutions. Fluorescence intensities were measured with excitation at 280 nm or 295 nm with 2.2 nm bandwidth, and detection at 337 nm with 4 nm bandwidth and a 290-nm cut-off filter. The data were corrected for sample dilution and inner filter effects. Equilibrium association constants (Kas) were determined by fitting the theoretical dependence of fluorescence intensity on cap analog concentration to the experimental data, as otherwise described in A. Niedźwiecka et al., “Biophysical studies of eIF4E cap-binding protein: recognition of mRNA 5′ cap structure and synthetic fragments of eIF4G and 4E-BP1 proteins,” J. Mol. Biol., vol. 312, pp. 615-635 (2002). The concentration of protein was allowed to be a free parameter in the equilibrium equation, to determine the amount of “active” protein. The final Kas was calculated as a weighted average of three to ten independent titrations, with the weights taken as the reciprocals of the squares of the numerical standard deviations. Numerical nonlinear least-square regression analysis was performed using ORGIN 6.0 (Microcal Software Inc., USA).
The binding affinities of eukaryotic eIF4E for various cap analogs were determined by fluorescence quenching. This biophysical test allows one to predict the potential efficacy of cap analogs in translation. Those having higher affinities for eIF4E than the unmodified cap analog (m^7GpppG) are expected to be better recognized by the translational machinery, leading to higher translational efficiencies. They also are expected to compete more effectively with unmodified mRNA when free cap dinucleotides are used to inhibit translation. See generally E. Grudzien-Nogalska et al., “Synthesis of anti-reverse cap analogs (ARCAs) and their applications in mRNA translation and stability,” Methods Enzymol., vol. 431, pp. 203-227 (2007).

[3] = target: T1, Human DcpS (Homo sapiens, UniProt Q96C86); test: Assay of susceptibility to DcpS (RP HPLC); assay type: biochemical
T1 construct: made in house; host or cells: Escherichia coli
T1 sequence (Q96C86 1-337): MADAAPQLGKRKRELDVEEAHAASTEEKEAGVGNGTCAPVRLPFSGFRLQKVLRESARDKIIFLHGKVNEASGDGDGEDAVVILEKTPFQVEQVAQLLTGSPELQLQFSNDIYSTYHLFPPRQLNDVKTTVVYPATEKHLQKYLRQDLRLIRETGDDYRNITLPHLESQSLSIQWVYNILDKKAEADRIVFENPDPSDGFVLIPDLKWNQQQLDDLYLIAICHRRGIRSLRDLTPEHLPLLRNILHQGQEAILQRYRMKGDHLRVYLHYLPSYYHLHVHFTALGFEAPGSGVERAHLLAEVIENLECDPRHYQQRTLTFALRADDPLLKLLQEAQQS
Procedure: Human DcpS was expressed in Escherichia coli as described in L. Cohen et al., “Nematode m^7GpppG and m3^2,2,7GpppG decapping: activities in Ascaris embryos and characterization of C. elegans scavenger DcpS,” RNA, vol. 10, pp. 1609-1624 (2004). A 15 μM solution of the protein in 20 mM Tris buffer, pH 7.5, containing 50 mM KCl, 0.2 mM EDTA, 1 mM DTT, 0.5 mM PMSF, and 20% glycerol was stored at −80° C. until used. Enzymatic reactions were carried out at 30° C. in 500 μl of 50 mM Tris-HCl, pH 7.9, containing 20 mM MgCl2 and 60 mM (NH4)2SO4. A 40 μM solution of the selected cap analog was treated with 5.0 μl of DcpS for 120 min. At times of 10, 30, 60, and 120 min, a 100-μl sample was collected from the reaction mixture and deactivated by incubation at 90° C. for 2 min. Samples were analyzed without further treatment by analytical RP HPLC with a linear gradient of methanol in 0.1 M KH2PO4, pH 6.0, from 0-50% over 15 min.

[4] = system: rabbit reticulocyte lysate system; test: In vitro translation efficiency of capped luciferase mRNA, method I transcripts; assay type: biochemical; conditions: for Translation efficiency in comparison with m^7GpppG-LUC mRNA, Experiment No. 1: experiment 1; for Translation efficiency in comparison with m^7GpppG-LUC mRNA, Experiment No. 2: experiment 2; for Translation efficiency in comparison with m^7GpppG-LUC mRNA, Experiment No. 3: experiment 3; for Translation efficiency in comparison with m^7GpppG-LUC mRNA, Mean: mean of experiments
Procedure: A DNA template for in vitro transcription was synthesized by PCR from the plasmid SP6p-5′UTR β-globin-LUCiferase. The template contained the SP6 promoter followed by the 5′-UTR sequence of rabbit β-globin mRNA and the entire firefly luciferase mRNA coding region. A typical in vitro transcription reaction mixture (50 μl) contained SP6 transcription buffer (Fermentas, cat. no. EP0131), 2 μg of DNA template, 2 U/μl RiboLock Ribonuclease Inhibitor (Fermentas), 2 mM each of ATP, CTP, and UTP, 0.1 mM GTP, and 1 mM dinucleotide cap analog. The reaction mixture was incubated at 37° C. for 5 min before the addition of SP6 RNA polymerase (Fermentas) to a final concentration of 2 U/μl. After 30 min of incubation at 37° C., GTP was added to a final concentration of 1 mM, and the reaction continued for an additional 90 min. The reaction mixtures were then treated with 1 U of DNase RQ1 (RNAse-free, Promega) per μg of template DNA in transcription buffer at 37° C. for 20 min. RNA transcripts were purified on DEPC-treated Sephadex G-50 spin columns (Pharmacia). The integrity of transcripts was confirmed by electrophoresis on a non-denaturating, 1% agarose gel. Concentrations were determined spectrophotometrically. The transcripts were stored at −80° C. until used.
as §1

[5] = 40 μM cap analog, 30° C., up to 120 min

Chain of eIF4E (P63073 28-217 limits assumed): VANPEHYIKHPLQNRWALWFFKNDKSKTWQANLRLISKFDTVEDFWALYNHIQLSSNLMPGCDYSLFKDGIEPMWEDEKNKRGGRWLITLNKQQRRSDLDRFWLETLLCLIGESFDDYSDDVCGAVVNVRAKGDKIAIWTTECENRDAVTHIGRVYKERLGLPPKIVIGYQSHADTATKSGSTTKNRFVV

Row | Translation efficiency in comparison to m^7GpppG-LUC-(A)31 mRNA, Experiment No. 4 [1] | Translation efficiency in comparison to m^7GpppG-LUC-(A)31 mRNA, Experiment No. 5 [1] | Translation efficiency in comparison to m^7GpppG-LUC-(A)31 mRNA, Mean [1] | Cap analog/eIF4E affinity (KAS) [2] | Susceptibility to DcpS [3, 5] | Susceptibility to DcpS ([3]; Table 3) | SMILES | also measured
1 | 1.87 | 3.44 | 2.66 | 39.4 ± 1.2 μM^−1 | resistant |  | [BH3-]P(=O)(OP(=O)(O)OCC1OC(n2cnc3c(=O)[nH]c(N)nc32)C(O)C1O)OP(=O)(O)OCC1OC(n2c[n+](C)c3c(=O)[nH]c(N)nc32)C(OC)C1O (single isomer, unassigned) [m2^7,2′-OGppBH3pG (D1), m2^7,2′-OGppBH3pG] | 
2 | 3.16 | 3.53 | 3.35 | 13.2 ± 0.2 μM^−1 | resistant |  | [BH3-]P(=O)(OP(=O)(O)OCC1OC(n2cnc3c(=O)[nH]c(N)nc32)C(O)C1O)OP(=O)(O)OCC1OC(n2c[n+](C)c3c(=O)[nH]c(N)nc32)C(OC)C1O (single isomer, unassigned) [m2^7,2′-OGppBH3pG (D2), m2^7,2′-OGppBH3pG] | 
3 |  |  |  |  |  | resistant | C[n+]1cn(C2OC(COP(O)(=[Se])OP(=O)([O-])OP(=O)(O)OCC3OC(n4cnc5c(=O)[nH]c(N)nc54)C(O)C3O)C(O)C2O)c2nc(N)[nH]c(=O)c21 (single isomer, unassigned) [m^7GpSeppG (D2), m^7GpSeppG] | 
4 |  |  |  |  |  | resistant | C[n+]1cn(C2OC(COP(O)(=[Se])OP(=O)([O-])OP(=O)(O)OCC3OC(n4cnc5c(=O)[nH]c(N)nc54)C(O)C3O)C(O)C2O)c2nc(N)[nH]c(=O)c21 (single isomer, unassigned) [m^7GpSeppG (D1), m^7GpSeppG] | 
5 |  |  |  |  |  |  | [BH3-]P(=O)(OP(=O)(O)OCC1OC(n2cnc3c(=O)[nH]c(N)nc32)C(O)C1O)OP(=O)(O)OCC1OC(n2c[n+](C)c3c(=O)[nH]c(N)nc32)C(O)C1O (mixture of isomers) [m^7GppBH3pG] | Translation efficiency in comparison with m^7GpppG-LUC mRNA, Experiment No. 1 [4]: 1.66; Translation efficiency in comparison with m^7GpppG-LUC mRNA, Experiment No. 2 [4]: 1.42; Translation efficiency in comparison with m^7GpppG-LUC mRNA, Experiment No. 3 [4]: 1.14; Translation efficiency in comparison with m^7GpppG-LUC mRNA, Mean [4]: 1.41; In vitro translational efficiency, method I ([4]; relative to m^7GpppG-capped luciferase mRNA = 1.0): 1.41 ± 0.26
6 | 0.19 | 0.18 | 0.19 |  |  |  | Nc1nc2c(ncn2[C@@H]2O[C@H](COP(=O)(O)OP(=O)(O)OP(=O)(O)OC[C@H]3O[C@@H](n4cnc5c(N)ncnc54)[C@H](O)[C@@H]3O)[C@@H](O)[C@H]2O)c(=O)[nH]1 [ApppG, reference compound] | Translation efficiency in comparison with m^7GpppG-LUC mRNA, Experiment No. 1 [4]: 0.34; Translation efficiency in comparison with m^7GpppG-LUC mRNA, Experiment No. 2 [4]: 0.55; Translation efficiency in comparison with m^7GpppG-LUC mRNA, Experiment No. 3 [4]: 0.53; Translation efficiency in comparison with m^7GpppG-LUC mRNA, Experiment No. 4 ([4]; experiment 4): 0.48; Translation efficiency in comparison with m^7GpppG-LUC mRNA, Mean [4]: 0.48; Translation efficiency in comparison to m^7GpppG-LUC-(A)31 mRNA, Experiment No. 1 ([1]; experiment 1): 0.27; Translation efficiency in comparison to m^7GpppG-LUC-(A)31 mRNA, Experiment No. 2 ([1]; experiment 2): 0.16; Translation efficiency in comparison to m^7GpppG-LUC-(A)31 mRNA, Experiment No. 3 ([1]; experiment 3): 0.14
7 |  |  |  | 10.8 ± 0.3 μM^−1 | hydrolyzed | hydrolyzed | CO[C@@H]1[C@H](O)[C@@H](COP(=O)(O)OP(=O)([O-])OP(=O)(O)OC[C@H]2O[C@@H](n3cnc4c(=O)[nH]c(N)nc43)[C@H](O)[C@@H]2O)O[C@H]1n1c[n+](C)c2c(O)nc(N)nc21 [m2^7,2′-OGpppG, reference compound] | Cap analog-eIF4E affinity (KAS) ([2]; Table 3): 10.8 ± 0.3 μM^−1
8 |  |  |  | 5.0 ± 0.2 μM^−1 | hydrolyzed |  | C[n+]1cn([C@@H]2O[C@H](COP(=O)(O)OP(=O)(O)OP(=O)(O)OC[C@H]3O[C@@H](n4c[n+](C)c5c(=O)[nH]c(N)nc54)[C@H](O)[C@@H]3O)[C@@H](O)[C@H]2O)c2nc(N)[nH]c(=O)c21 [m^7Gpppm^7G, reference compound] | 

Row | SMILES | Translation efficiency in comparison to m^7GpppG-LUC-(A)31 mRNA, Experiment No. 4 [1] | Translation efficiency in comparison to m^7GpppG-LUC-(A)31 mRNA, Experiment No. 5 [1] | Translation efficiency in comparison to m^7GpppG-LUC-(A)31 mRNA, Mean [1] | Cap analog/eIF4E affinity (KAS) [2] | Susceptibility to DcpS [3, 5] | Susceptibility to DcpS ([3]; Table 3) | also measured
9 | CO[C@@H]1[C@H](O)[C@@H](COP(=O)([O-])OP(O)(=S)OP(=O)(O)OC[C@H]2O[C@@H](n3cnc4c(=O)[nH]c(N)nc43)[C@H](O)[C@@H]2O)O[C@H]1[n+]1cn(C)c2c(=O)[nH]c(N)nc21 (single isomer, unassigned) [m2^7,2′-OGppSpG (D2), m2^7,2′-OGppSpG, reference compound] | 3.20 | 3.02 | 3.11 |  |  |  | 
10 | CO[C@@H]1[C@H](O)[C@@H](COP(=O)([O-])OP(O)(=S)OP(=O)(O)OC[C@H]2O[C@@H](n3cnc4c(=O)[nH]c(N)nc43)[C@H](O)[C@@H]2O)O[C@H]1[n+]1cn(C)c2c(=O)[nH]c(N)nc21 (single isomer, unassigned) [m2^7,2′-OGppSpG (D1), m2^7,2′-OGppSpG, reference compound] | 2.92 | 2.83 | 2.88 |  |  |  | 
